The source of these data is patent US9206188B2, “Substituted pyrrolo[2,3-b]pyridines as ITK and JAK inhibitors” (Arrien Pharmaceuticals LLC, priority 2013, dated 2015).

pIC50: −log10 of the molar value. Like-named read-outs stand apart in the source and are kept apart here.

The target of experiment [1] is ITK (Homo sapiens (Human), UniProt Q08881). Description: ITK kinase assay (radiometric filter binding, 10 μM ATP). Type of experiment: biochemical. The method, then: (§1) All additions were done on ice, followed by the addition of ATP mix. Wells were uniformly mixed using an Eppendorff plate shaker and incubated at 30° C. for 20 min, and stopped by the addition of 5 μL of 3% phosphoric acid. Volume was increased to 100 μL by adding 0.8% phosphoric acid which was then transferred to PC filter mats (Millipore), pre-equilibrated with 70% ethanol and water. Plates were washed thrice with 100 μL 0.8% phosphoric acid and dried for an hour at 60° C. 100 μL scintillation fluid was added into each well and reading taken in Perkin Elmer TOPCOUNT beta counter.
Sequence of ITK (Q08881 whole entry): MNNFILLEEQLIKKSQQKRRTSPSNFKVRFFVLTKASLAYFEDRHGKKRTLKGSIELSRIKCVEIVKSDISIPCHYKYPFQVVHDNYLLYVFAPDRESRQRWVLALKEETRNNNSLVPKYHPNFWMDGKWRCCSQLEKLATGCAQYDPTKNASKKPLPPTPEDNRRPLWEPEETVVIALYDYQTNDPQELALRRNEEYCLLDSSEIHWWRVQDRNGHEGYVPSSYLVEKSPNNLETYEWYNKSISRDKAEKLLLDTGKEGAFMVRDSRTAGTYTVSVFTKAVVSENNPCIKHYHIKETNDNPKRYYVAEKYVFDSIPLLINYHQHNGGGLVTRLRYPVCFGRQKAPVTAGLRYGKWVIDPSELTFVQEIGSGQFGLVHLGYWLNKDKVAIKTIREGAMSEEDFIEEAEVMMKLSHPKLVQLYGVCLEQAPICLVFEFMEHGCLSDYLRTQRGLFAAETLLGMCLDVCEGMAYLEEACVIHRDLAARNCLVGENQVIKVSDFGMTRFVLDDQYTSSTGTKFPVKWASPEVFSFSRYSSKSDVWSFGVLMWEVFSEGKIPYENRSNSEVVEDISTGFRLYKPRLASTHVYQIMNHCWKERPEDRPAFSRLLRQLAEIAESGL
(§2) The reactions were carried out at 10 μM ATP for ITK, JAK3 and other TEC and Janus family of kinase.

Experiment [2] deals with JAK3 (Homo sapiens (Human), UniProt P52333). The experiment in a line: JAK3 kinase assay (radiometric filter binding, 10 μM ATP). In kind it is biochemical. How it is done: as §1, §2
Sequence of JAK3 (P52333 whole entry): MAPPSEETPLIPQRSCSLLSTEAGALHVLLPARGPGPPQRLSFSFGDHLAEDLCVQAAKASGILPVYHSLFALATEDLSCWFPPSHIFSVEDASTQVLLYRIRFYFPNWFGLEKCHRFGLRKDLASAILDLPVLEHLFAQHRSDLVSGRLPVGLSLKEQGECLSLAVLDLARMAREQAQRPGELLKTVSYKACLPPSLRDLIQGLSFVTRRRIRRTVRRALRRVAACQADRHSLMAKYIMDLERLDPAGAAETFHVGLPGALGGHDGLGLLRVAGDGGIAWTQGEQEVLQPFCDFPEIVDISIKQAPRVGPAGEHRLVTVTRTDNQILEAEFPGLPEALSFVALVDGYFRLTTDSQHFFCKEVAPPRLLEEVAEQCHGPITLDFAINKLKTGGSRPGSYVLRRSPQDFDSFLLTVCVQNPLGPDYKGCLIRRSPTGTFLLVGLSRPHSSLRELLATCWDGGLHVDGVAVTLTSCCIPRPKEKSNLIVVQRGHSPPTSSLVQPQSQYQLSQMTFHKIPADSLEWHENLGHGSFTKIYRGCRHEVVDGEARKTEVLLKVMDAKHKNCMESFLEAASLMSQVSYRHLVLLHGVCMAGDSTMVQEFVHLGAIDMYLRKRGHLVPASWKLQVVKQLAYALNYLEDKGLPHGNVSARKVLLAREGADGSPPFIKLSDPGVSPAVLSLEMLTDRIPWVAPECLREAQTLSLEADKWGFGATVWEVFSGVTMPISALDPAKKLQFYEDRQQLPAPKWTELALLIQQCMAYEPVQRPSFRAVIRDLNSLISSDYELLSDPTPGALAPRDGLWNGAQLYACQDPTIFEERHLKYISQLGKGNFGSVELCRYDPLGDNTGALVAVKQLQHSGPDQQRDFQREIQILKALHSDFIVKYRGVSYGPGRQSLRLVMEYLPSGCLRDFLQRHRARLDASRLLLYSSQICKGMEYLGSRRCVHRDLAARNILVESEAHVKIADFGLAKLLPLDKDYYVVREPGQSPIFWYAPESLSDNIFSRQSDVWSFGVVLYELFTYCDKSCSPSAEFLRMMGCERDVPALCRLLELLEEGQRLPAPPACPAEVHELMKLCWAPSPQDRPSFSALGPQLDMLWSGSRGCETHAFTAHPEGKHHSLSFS
The mark [3] stands for this setting: 10-dose IC50 mode, 10 μM ATP, read-out: ITK kinase inhibition.
The mark [4] stands for this setting: 10-dose IC50 mode, 10 μM ATP, read-out: JAK3 kinase inhibition.
Where [5] appears, read: read-out: ITK kinase inhibition.

Regarding `C=CC(=O)N1CCCC1C(=O)Nc1cccc(-c2cnc3[nH]cc(C)c3c2)c1` (stereo not shown) [Example 72, 1-acryloyl-N-(3-(3-methyl-1H-pyrrolo[2,3-b]pyridin-5-yl)phenyl)pyrrolidine-2-carboxamide], the pIC50 in experiment [1] (setting [3]) and in experiment [2] (setting [4]) was less than 7.00 throughout.

For `CC/C=C/C(=O)Nc1cc(-c2cnc3[nH]nc(C)c3c2)ccc1Cl` [Example 52, (E)-N-(2-chloro-5-(3-methyl-1H-pyrazolo[3,4-b]pyridin-5-yl)phenyl)pent-2-enamide], the pIC50 in experiment [1] (setting [3]) and in experiment [2] (setting [4]) was less than 6.00 throughout.

For `C=CC(=O)Nc1ccc(-c2cnc3[nH]cc(Cl)c3c2)cc1F` [Example 62, -(4-(3-chloro-1H-pyrrolo[2,3-b]pyridin-5-yl)-2-fluorophenyl)acrylamide], the pIC50 in experiment [1] (setting [3]) was less than 6.00; in experiment [2] (setting [4]) it was less than 7.00.

For `CC#CC(=O)Nc1cc(-c2cnc3[nH]cc(Cl)c3c2)ccc1F` [Example 88, N-(5-(3-chloro-1H-pyrrolo[2,3-b]pyridin-5-yl)-2-fluorophenyl)but-2-ynamide], the pIC50 in experiment [2] (setting [4]) is more than 7.00.

Consider `C=CC(=O)Nc1cccc(-c2cnc3[nH]cc(-c4cccc(C(=O)OCC)c4)c3c2)c1` [Example 29, ethyl 3-(5-(3-acrylamidophenyl)-1H-pyrrolo[2,3-b]pyridin-3-yl)benzoate], for which the pIC50 in experiment [1] (setting [3]) and in experiment [2] (setting [4]) was more than 7.00 throughout.

In the case of `C=CC(=O)Nc1cccc(-c2cnc3[nH]cc(-c4cc5ccc(C)cc5[nH]4)c3n2)c1` [Example 2, N-(3-(7-(6-methyl-1H-indol-2-yl)-5H-pyrrolo[2,3-b]pyrazin-2-yl)phenyl)acrylamide], the pIC50 in experiment [1] (setting [3]) and in experiment [2] (setting [4]) was less than 7.00 each time.

`Cc1c[nH]c2ncc(-c3cccc(NC(=O)CF)c3)cc12` [Example 25, 2-fluoro-N-(3-(3-methyl-1H-pyrrolo[2,3-b]pyridin-5-yl)phenyl)acetamide]: the pIC50 was less than 6.00 in experiment [1] (setting [3]) and more than 7.00 in experiment [2] (setting [4]).

Take `C=CC(=O)Nc1cc(-c2cnc3[nH]cc(-c4cc(F)cc(F)c4OC)c3c2)ccc1Cl` [Example 41, N-(2-chloro-5-(3-(3,5-difluoro-2-methoxyphenyl)-1H-pyrrolo[2,3-b]pyridin-5-yl)phenyl)acrylamide]: the pIC50 in experiment [1] (setting [3]) and in experiment [2] (setting [4]) was less than 7.00 in each case.

Take `C=CC(=O)Nc1cc(-c2cnc3[nH]cc(-c4cc(F)cc(F)c4OC)c3c2)ccc1F` [Example 38, N-(5-(3-(3,5-difluoro-2-methoxyphenyl)-1H-pyrrolo[2,3-b]pyridin-5-yl)-2-fluorophenyl)acrylamide]: the pIC50 in experiment [1] (setting [3]) and in experiment [2] (setting [4]) was less than 7.00 throughout.

As to `C#CC(=O)Nc1cc(-c2cnc3[nH]ccc3c2)ccc1F` [Example 83, N-(2-fluoro-5-(1H-pyrrolo[2,3-b]pyridin-5-yl)phenyl)propiolamide], the figures for the pIC50 in experiment [1] (setting [3]) and in experiment [2] (setting [4]) were less than 6.00 and more than 7.00, respectively.

Consider `C=CC(=O)Nc1ccc(F)c(-c2cnc3[nH]cc(-c4cc(F)cc(F)c4OC)c3c2)c1` [Example 40, N-(3-(3-(3,5-difluoro-2-methoxyphenyl)-1H-pyrrolo[2,3-b]pyridin-5-yl)-4-fluorophenyl)acrylamide], for which the pIC50 in experiment [1] (setting [3]) and in experiment [2] (setting [4]) was less than 7.00 throughout.

Turning to `CCC#CC(=O)Nc1cccc(-c2cnc3[nH]cc(C)c3c2)n1` [Example 90, N-(6-(3-methyl-1H-pyrrolo[2,3-b]pyridin-5-yl)pyridin-2-yl)pent-2-ynamide], the pIC50 in experiment [1] (setting [3]) and in experiment [2] (setting [4]) was more than 7.00 each time.

Regarding `CC#CC(=O)Nc1cccc(-c2cnc3[nH]cc(-c4cccc(S(=O)(=O)N(C)C(C)(C)C)c4)c3c2)c1` [Example 94, N-(3-(3-(3-(N-(tert-butyl)-N-methylsulfamoyl)phenyl)-1H-pyrrolo[2,3-b]pyridin-5-yl)phenyl)but-2-ynamide], the pIC50 in experiment [1] (setting [5]) and in experiment [2] (setting [4]) was less than 7.00 in each case.

`C=CC(=O)Nc1cccc(-c2cnc3[nH]cc(-c4cc(F)cc(F)c4OC)c3c2)n1` [Example 42, N-(6-(3-(3,5-difluoro-2-methoxyphenyl)-1H-pyrrolo[2,3-b]pyridin-5-yl)pyridin-2-yl)acrylamide]: the pIC50 in experiment [1] (setting [3]) and in experiment [2] (setting [4]) was less than 7.00 each time.

Regarding `CCC#CC(=O)Nc1cccc(-c2cnc3[nH]cc(C)c3c2)c1` [Example 24, N-(3-(3-methyl-1H-pyrrolo[2,3-b]pyridin-5-yl)phenyl)pent-2-ynamide], the results for the pIC50 in experiment [1] (setting [3]) and in experiment [2] (setting [4]) were less than 7.00 and more than 7.00, respectively.

For `CCC#CC(=O)Nc1cccc(-c2cnc3[nH]cc(-c4cccc(S(=O)(=O)N(C)C(C)(C)C)c4)c3n2)c1` [Example 96, N-(3-(7-(3-(N-(tert-butyl)-N-methylsulfamoyl)phenyl)-5H-pyrrolo[2,3-b]pyrazin-2-yl)phenyl)pent-2-ynamide], the pIC50 in experiment [1] (setting [3]) and in experiment [2] (setting [4]) was less than 7.00 each time.

Regarding `C=CC(=O)Nc1cccc(-c2cnc3[nH]cc(-c4cccc(S(=O)(=O)CC)c4)c3c2)c1` [Example 36, N-(3-(3-(3-(ethylsulfonyl)phenyl)-1H-pyrrolo[2,3-b]pyridin-5-yl)phenyl)acrylamide], the pIC50 in experiment [1] (setting [3]) and in experiment [2] (setting [4]) was less than 7.00 in each case.

On to `CCC#CC(=O)Nc1cccc(-c2cnc3[nH]cc(Cl)c3c2)n1` [Example 80, N-(6-(3-chloro-1H-pyrrolo[2,3-b]pyridin-5-yl)pyridin-2-yl)pent-2-ynamide], for which the pIC50 in experiment [1] (setting [3]) and in experiment [2] (setting [4]) was more than 7.00 in each case.

As to `C=CC(=O)N1CCCC1C(=O)Nc1cnc2[nH]ccc2c1` (stereo not shown) [Example 69, 1-acryloyl-N-(1H-pyrrolo[2,3-b]pyridin-5-yl)pyrrolidine-2-carboxamide], the pIC50 in experiment [1] (setting [3]) and in experiment [2] (setting [4]) was less than 7.00 throughout.

Consider `C#CC(=O)Nc1cccc(-c2cnc3[nH]cc(Cl)c3c2)n1` [Example 79, N-(6-(3-chloro-1H-pyrrolo[2,3-b]pyridin-5-yl)pyridin-2-yl)propiolamide], for which the pIC50 in experiment [1] (setting [3]) and in experiment [2] (setting [4]) was more than 7.00 in each case.

In the case of “(E)-N-(3-(3-methyl-1H- pyrazolo[3,4-b]pyridin-5- yl)phenyl)acrylamide [Example 51]”, the pIC50 in experiment [1] (setting [5]) and in experiment [2] (read-out: JAK3 kinase inhibition) was less than 7.00 throughout.

Turning to `C=CC(=O)Nc1cccc(-c2cnc3[nH]ccc3c2)n1` [Example 57, N-(6-(1H-pyrrolo[2,3-b]pyridin-5-yl)pyridin-2-yl)acrylamide], the values for the pIC50 in experiment [1] (setting [3]) and in experiment [2] (setting [4]) were less than 7.00 and more than 7.00, respectively.

On to `C=CC(=O)Nc1cccc(-c2cnc3[nH]cc(-c4cc5ccc(C)cc5[nH]4)c3c2)c1` [Example 75, N-(3-(3-(6-methyl-1H-indol-2-yl)-1H-pyrrolo[2,3-b]pyridin-5-yl)phenyl)acrylamide], for which the pIC50 was less than 6.00 in experiment [1] (setting [3]), 6.00 to 7.00 in experiment [1] (read-out: biochemical IC50 against ITK), more than 7.00 in experiment [2] (setting [4]) and 6.00 to 7.00 in experiment [2] (read-out: biochemical IC50 against JAK3).

With `C=CC(=O)Nc1cc(-c2cnc3[nH]nc(C)c3c2)ccc1Cl` [Example 50, N-(2-chloro-5-(3-methyl-1H-pyrazolo[3,4-b]pyridin-5-yl)phenyl)acrylamide], the pIC50 in experiment [1] (setting [3]) and in experiment [2] (setting [4]) was less than 7.00 throughout.

For the molecule `N#CCc1cccc(Nc2cnc3[nH]cc(Cl)c3c2)c1` [Example 53, 2-(3-((3-chloro-1H-pyrrolo[2,3-b]pyridin-5-yl)amino)phenyl)acetonitrile], the pIC50 in experiment [1] (setting [3]) and in experiment [2] (setting [4]) was less than 6.00 each time.

Consider `C=CC(=O)Nc1cccc(-c2cnc3[nH]cc(-c4cc(C)c(F)cc4OC)c3c2)c1` [Example 140, N-(3-(3-(4-fluoro-2-methoxy-5-methylphenyl)-1H-pyrrolo[2,3-b]pyridin-5-yl)phenyl)acrylamide], for which the pIC50 was less than 6.00 in experiment [1] (setting [3]) and less than 7.00 in experiment [2] (setting [4]).

In the case of `CC#CC(=O)Nc1cccc(-c2cnc3[nH]ccc3c2)n1` [Example 81, N-(6-(1H-pyrrolo[2,3-b]pyridin-5-yl)pyridin-2-yl)but-2-ynamide], the pIC50 in experiment [1] (setting [3]) and in experiment [2] (setting [4]) was more than 7.00 each time.

As for `C#CC(=O)Nc1cc(-c2cnc3[nH]cc(C)c3c2)ccc1F` [Example 92, N-(2-fluoro-5-(3-methyl-1H-pyrrolo[2,3-b]pyridin-5-yl)phenyl)propiolamide], the pIC50 in experiment [1] (setting [3]) and in experiment [2] (setting [4]) was more than 7.00 in each case.

`COc1c(F)cc(F)cc1-c1c[nH]c2ncc(-c3cc(F)cc(NC(=O)/C=C/CN(C)C)c3C)cc12` [Example 169, (E)-N-(3-(3-(3,5-difluoro-2-methoxyphenyl)-1H-pyrrolo[2,3-b]pyridin-5-yl)-5-fluoro-2-methylphenyl)-4-(dimethylamino)but-2-enamide]: the pIC50 in experiment [1] (setting [3]) and in experiment [2] (setting [4]) was more than 7.00 in each case.

As for `C=CC(=O)Nc1cccc(-c2cnc3[nH]cc(Cl)c3c2)n1` [Example 58, N-(6-(3-chloro-1H-pyrrolo[2,3-b]pyridin-5-yl)pyridin-2-yl)acrylamide], the figures for the pIC50 in experiment [1] (setting [3]) and in experiment [2] (setting [4]) were less than 7.00 and more than 7.00, respectively.

Turning to `C=CC(=O)Nc1cc(-c2cnc3[nH]cc(Cl)c3c2)cc(F)c1F` [Example 64, N-(5-(3-chloro-1H-pyrrolo[2,3-b]pyridin-5-yl)-2,3-difluorophenyl)acrylamide], the pIC50 in experiment [2] (setting [4]) is less than 7.00.

In the case of “(E)-N-(2-chloro-5-(3-methyl-1H- pyrrolo[2,3-b]pyridin-5- yl)phenyl)pent-1-enamide [Example 14]”, the pIC50 in experiment [2] (setting [4]) is less than 7.00.

With `CN(C)/C=C/C(=O)Nc1cccc(-c2cnc3[nH]cc(Cl)c3c2)c1` [Example 44, (E)-N-(3-(3-chloro-1H-pyrrolo[2,3-b]pyridin-5-yl)phenyl)-3-(dimethylamino)acrylamide], the pIC50 in experiment [1] (setting [3]) was less than 6.00.
